Results taken from patent US20250346602A1, “LACTAM SUBSTITUTED IMIDAZOPYRIDAZINE IL-17A MODULATORS AND USES THEREOF” (DICE ALPHA, INC., priority 2022, published 2025).

Target: T1, IL-17A/A (Homo sapiens, UniProt Q16552)
T1 construct: purchased Genscript Z03228
T1 sequence (Q16552 24-155): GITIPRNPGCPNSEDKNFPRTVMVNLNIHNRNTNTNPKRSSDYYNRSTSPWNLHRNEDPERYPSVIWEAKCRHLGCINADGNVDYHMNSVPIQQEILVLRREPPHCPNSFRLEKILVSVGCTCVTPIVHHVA
Experiment: IL-17A/A HEK-Blue cell assay
Type: cell-based
Settings: HEK-Blue IL-17A reporter cell line (HEK 293), IL-17A/A stimulation, 20 hours incubation, SEAP read at A630
Experimental: The HEK-Blue IL-17A reporter cell line (Fisher #NC1408637) was used for cell-based IL-17A/A inhibition assays. Cells were grown and prepared for assays according to the manufacturer's instructions. This cell line consists of HEK 293 cells that were designed to expressed IL-17RA, IL-17RC, and the ActI adapter molecule, the combination of which, when stimulated by IL-17A/A activates a NFκB promoter and drives expression of a recombinant Secreted Alkaline Phosphatase (SEAP) gene protein. Media from the cells is then added to a development reagent (Quanti-Blue Substrate, Fisher #NC9711613), and read at A630.
Compounds were titrated in DMSO, with a top final compound concentration of 10 uM, 1 uM, or 0.3 uM, and added to the cells immediately before adding IL-17A/A (Genscript #Z03228). The cells, compound, and IL-17A/A were then incubated for 20 hours before media was removed for SEAP analysis. The resulting inhibition curve was then analyzed using Graphpad Prism 7.0, and IC50 values were determined using a 4-parameter nonlinear fit. DMSO was added to a universal final concentration of 0.1% to optimize background.

Row | Compound | IC50
1 | O=C(N[C@H](c1cn2nc(CC3C[C@@H](C(F)(F)F)CNC3=O)ccc2n1)C1CCC(F)(F)CC1)c1cnsn1 (stereo partly drawn) [Compound 132, N-((1S)-(4,4-difluorocyclohexyl)(6-(((5R)-2-oxo-5-(trifluoromethyl)piperidin-3-yl)methyl)imidazo[1,2-b]pyridazin-2-yl)methyl)-1,2,5-thiadiazole-3-carboxamide] | > 1 µM
2 | CCn1nccc1C(=O)N[C@H](c1cn2nc(CC3C[C@@H](C(F)(F)F)CNC3=O)ccc2n1)[C@@H]1CCCC(F)(F)C1 (stereo partly drawn) [Compound 194, N-((1S)—((R)-3,3-difluorocyclohexyl)(6-(((5R)-2-oxo-5-(trifluoromethyl)piperidin-3-yl)methyl)imidazo[1,2-b]pyridazin-2-yl)methyl)-1-ethyl-1H-pyrazole-5-carboxamide] | > 1 µM
3 | CCn1nccc1C(=O)N[C@H](c1cn2nc(CC3C(=O)NCC3C(F)(F)F)ccc2n1)C(C1CC1)C1CC1 (single isomer, unassigned) [Compound 45] | > 1 µM
4 | CCn1nccc1C(=O)N[C@H](c1cn2nc(CC3CCC(C(F)(F)F)NC3=O)ccc2n1)C(C1CC1)C1CC1 (single isomer, unassigned) [Compound 43] | > 1 µM
5 | CC[C@@H]1CC(Cc2ccc3nc([C@@H](NC(=O)c4ccnn4CC)[C@H]4CC[C@H](C)CC4)cn3n2)C(=O)N1 (stereo partly drawn) [Compound 59, 1-ethyl-N-((1S)-(6-(((5R)-5-ethyl-2-oxopyrrolidin-3-yl)methyl)imidazo[1,2-b]pyridazin-2-yl)((1r,4S)-4-methylcyclohexyl)methyl)-1H-pyrazole-5-carboxamide] | 0.1 to 1 µM
6 | O=C(N[C@H](c1cn2nc(CC3C[C@@H](C(F)(F)F)CNC3=O)ccc2n1)C1CCC(F)(F)CC1)c1ccnn1CC(F)F (stereo partly drawn) [Compound 106, N-((1S)-(4,4-difluorocyclohexyl)(6-(((5R)-2-oxo-5-(trifluoromethyl)piperidin-3-yl)methyl)imidazo[1,2-b]pyridazin-2-yl)methyl)-1-(2,2-difluoroethyl)-1H-pyrazole-5-carboxamide] | 0.1 to 1 µM
7 | CCn1nccc1C(=O)N[C@@H](c1cn2nc(CC3C[C@@H](C(F)(F)F)CNC3=O)ccc2n1)[C@@H]1C[C@H]2C[C@H]2C1 (stereo partly drawn) [Compound 171, N-((1R)-((1R,3S,5S)-bicyclo[3.1.0]hexan-3-yl)(6-(((5R)-2-oxo-5-(trifluoromethyl)piperidin-3-yl)methyl)imidazo[1,2-b]pyridazin-2-yl)methyl)-1-ethyl-1H-pyrazole-5-carboxamide] | 0.1 to 1 µM
8 | CCn1nccc1C(=O)N[C@H](c1cn2nc(CC3CC(F)(F)CNC3=O)c(OC)cc2n1)C1CCC(F)(F)CC1 (stereo partly drawn) [Compound 75, N-((1S)-(6-((5,5-difluoro-2-oxopiperidin-3-yl)methyl)-7-methoxyimidazo[1,2-b]pyridazin-2-yl)(4,4-difluorocyclohexyl)methyl)-1-ethyl-1H-pyrazole-5-carboxamide] | > 1 µM
9 | CCn1nccc1C(=O)N[C@H](c1cn2nc(CC3CC(F)(F)CNC3=O)c(NC(=O)OC)cc2n1)C1CCC(F)(F)CC1 (stereo partly drawn) [Compound 72, methyl (6-((5,5-difluoro-2-oxopiperidin-3-yl)methyl)-2-((S)-(4,4-difluorocyclohexyl)(1-ethyl-1H-pyrazole-5-carboxamido)methyl)imidazo[1,2-b]pyridazin-7-yl)carbamate] | 0.1 to 1 µM
10 | Cc1nonc1C(=O)N[C@H](c1cn2nc(C[C@H]3CCCNC3=O)ccc2n1)C(C1CC1)C1CC1 [Compound 36, N—((S)-2,2-dicyclopropyl-1-(6-(((R)-2-oxopiperidin-3-yl)methyl)imidazo[1,2-b]pyridazin-2-yl)ethyl)-4-methyl-1,2,5-oxadiazole-3-carboxamide] | > 1 µM
11 | CCn1nccc1C(=O)N[C@H](c1cn2nc(C[C@@H]3CCCNC3=O)ccc2n1)C(C1CC1)C1CC1 (single isomer, unassigned) [Compound 33] | 0.1 to 1 µM

Continued, values first:

Row | IC50 | Compound
12 | < 0.1 µM | O=C(N[C@H](c1cn2nc(CC3C[C@@H](C(F)(F)F)CNC3=O)ccc2n1)[C@H]1CCCC(F)(F)C1)c1conc1C1CC1 (stereo partly drawn) [Compound 146, 3-cyclopropyl-N-((1S)—((S)-3,3-difluorocyclohexyl)(6-(((5R)-2-oxo-5-(trifluoromethyl)piperidin-3-yl)methyl)imidazo[1,2-b]pyridazin-2-yl)methyl)isoxazole-4-carboxamide]
13 | 0.1 to 1 µM | CCn1nccc1C(=O)N[C@H](c1cn2nc(CC3C[C@@H](C(F)(F)F)CNC3=O)c(S(C)(=O)=O)cc2n1)C1CCC(F)(F)CC1 (stereo partly drawn) [Compound 184, N-((1S)-(4,4-difluorocyclohexyl)(7-(methylsulfonyl)-6-(((5R)-2-oxo-5-(trifluoromethyl)piperidin-3-yl)methyl)imidazo[1,2-b]pyridazin-2-yl)methyl)-1-ethyl-1H-pyrazole-5-carboxamide]
14 | 0.1 to 1 µM | O=C1NC[C@H](C(F)(F)F)CC1Cc1ccc2nc([C@@H](NC(=O)C3CC34CC(F)(F)C4)C3CCC(F)(F)CC3)cn2n1 (single isomer, unassigned) [Compound 131]
15 | 0.1 to 1 µM | CCn1nccc1C(=O)N[C@H](c1cn2nc(CC3C[C@@H](C(F)(F)F)CNC3=O)c(N(C)CC(F)(F)F)cc2n1)C1CCC(F)(F)CC1 (single isomer, unassigned) [Compound 182]
16 | 0.1 to 1 µM | O=C(N[C@H](c1cn2nc(CC3C[C@@H](C(F)(F)F)CNC3=O)ccc2n1)C1CCC(F)(F)CC1)c1conc1C1CC1 (stereo partly drawn) [Compound 136, 3-cyclopropyl-N-((1S)-(4,4-difluorocyclohexyl)(6-(((5R)-2-oxo-5-(trifluoromethyl)piperidin-3-yl)methyl)imidazo[1,2-b]pyridazin-2-yl)methyl)isoxazole-4-carboxamide]
17 | < 0.1 µM | O=C(N[C@H](c1cn2ncc(CC3C[C@@H](C(F)(F)F)NC3=O)cc2n1)C1CCC(F)(F)CC1)c1conc1C1CC1 (single isomer, unassigned) [Compound 219]
18 | 0.1 to 1 µM | O=C(N[C@H](c1cn2nc(CC3C[C@@H](C(F)(F)F)CNC3=O)ccc2n1)[C@@H]1CCCC(F)(F)C1)c1conc1C1CC1 (stereo partly drawn) [Compound 147, 3-cyclopropyl-N-((1S)—((R)-3,3-difluorocyclohexyl)(6-(((5R)-2-oxo-5-(trifluoromethyl)piperidin-3-yl)methyl)imidazo[1,2-b]pyridazin-2-yl)methyl)isoxazole-4-carboxamide]
19 | < 0.1 µM | CCn1nccc1C(=O)N[C@H](c1cn2nc(CC3C[C@H](C(F)(F)F)CNC3=O)ccc2n1)C1CCCCCC1 (stereo partly drawn) [Compound 177, N—((S)-cycloheptyl(6-(((5S)-2-oxo-5-(trifluoromethyl)piperidin-3-yl)methyl)imidazo[1,2-b]pyridazin-2-yl)methyl)-1-ethyl-1H-pyrazole-5-carboxamide]
20 | 0.1 to 1 µM | O=C(N[C@H](c1cn2nc(CC3C[C@@H](C(F)(F)F)CNC3=O)ccc2n1)C1CCC(F)(F)CC1)c1nonc1CC(F)(F)F (stereo partly drawn) [Compound 116, N-((1S)-(4,4-difluorocyclohexyl)(6-(((5R)-2-oxo-5-(trifluoromethyl)piperidin-3-yl)methyl)imidazo[1,2-b]pyridazin-2-yl)methyl)-4-(2,2,2-trifluoroethyl)-1,2,5-oxadiazole-3-carboxamide]
21 | 0.1 to 1 µM | CCn1nncc1C(=O)N[C@H](c1cn2nc(CC3C[C@@H](C(F)(F)F)CNC3=O)ccc2n1)C1CCC(F)(F)CC1 (stereo partly drawn) [Compound 108, N-((1S)-(4,4-difluorocyclohexyl)(6-(((5R)-2-oxo-5-(trifluoromethyl)piperidin-3-yl)methyl)imidazo[1,2-b]pyridazin-2-yl)methyl)-1-ethyl-1H-1,2,3-triazole-5-carboxamide]
22 | < 0.1 µM | CCn1nccc1C(=O)N[C@H](c1cn2nc(CC3CC(F)(F)CNC3=O)c(N(C)C)cc2n1)C1CCC(F)(F)CC1 (single isomer, unassigned) [Compound 87]
23 | 0.1 to 1 µM | Cc1nonc1C(=O)N[C@H](c1cn2nc(CC3C[C@@H](C(F)(F)F)CNC3=O)ccc2n1)[C@H]1CC[C@H](C)CC1 (stereo partly drawn) [Compound 165, 4-Methyl-N-((1S)-((1R.4S)-4-methylcyclohexyl)(6-(((5R)-2-oxo-5-(trifluoromethyl)piperidin-3-yl)methyl)imidazo[1,2-b]pyridazin-2-yl)methyl)-1,2,5-oxadiazole-3-carboxamide]
24 | < 0.1 µM | CC(C)c1nonc1C(=O)N[C@H](c1cn2nc(CC3C[C@@H](C(F)(F)F)CNC3=O)ccc2n1)C1CCC(F)(F)CC1 (stereo partly drawn) [Compound 117, N-((1S)-(4,4-difluorocyclohexyl)(6-(((5R)-2-oxo-5-(trifluoromethyl)piperidin-3-yl)methyl)imidazo[1,2-b]pyridazin-2-yl)methyl)-4-isopropyl-1,2,5-oxadiazole-3-carboxamide]
25 | < 0.1 µM | CCn1nccc1C(=O)NC(c1cn2nc(CC3C[C@@H](C(F)(F)F)CNC3=O)ccc2n1)C1CCC2CC2CC1 (single isomer, unassigned) [Compound 176]
26 | < 0.1 µM | CCn1nccc1C(=O)N[C@H](c1cn2nc(CC3C[C@@H](C(F)(F)F)CNC3=O)c(N(C)C3CC3)cc2n1)C1CCC(F)(F)CC1 (single isomer, unassigned) [Compound 91]
